Patent publication US12723063B2, “GIPR-agonist compounds” (Eli Lilly and Company, priority 2019, dated 2026)
pKi: −log10 of the molar value. *1 amine or outer side, *2 acyl side, *3 side chain or, on linkers, in order; H or OH if unused. Where a SMILES comes first, the peptide text is derived from it. Side-chain parts run from the residue outwards. [ ]: non-standard residue; d: D form. The star is where a group is joined. C20 diacid = O=C(O)CCCCCCCCCCCCCCCCCCC(=O)*; γGlu = O=C(O)[C@H](CCC(=O)[*:2])N[*:1]; 4Pal = N[C@@H](Cc1ccncc1)C(=O)O; αMeL = CC(C)C[C@](C)(N)C(=O)O; AEEA = NCCOCCOCC(=O)O; Aib = CC(C)(N)C(=O)O

Tests used:
[1] = target: T1, human glucagon receptor (GcgR) (Homo sapiens, UniProt P47871); test: cAMP functional assay (HTRF) in HEK293 cells in presence of 0.1% casein; assay type: cell-based; details: HEK293 cells expressing human GcgR, geometric mean, read-out: hGcgR cAMP Rel EC50 nM (SEM, n)
T1 construct: expressed in transfected cells; host or cells: HEK293
T1 sequence (P47871 26-477): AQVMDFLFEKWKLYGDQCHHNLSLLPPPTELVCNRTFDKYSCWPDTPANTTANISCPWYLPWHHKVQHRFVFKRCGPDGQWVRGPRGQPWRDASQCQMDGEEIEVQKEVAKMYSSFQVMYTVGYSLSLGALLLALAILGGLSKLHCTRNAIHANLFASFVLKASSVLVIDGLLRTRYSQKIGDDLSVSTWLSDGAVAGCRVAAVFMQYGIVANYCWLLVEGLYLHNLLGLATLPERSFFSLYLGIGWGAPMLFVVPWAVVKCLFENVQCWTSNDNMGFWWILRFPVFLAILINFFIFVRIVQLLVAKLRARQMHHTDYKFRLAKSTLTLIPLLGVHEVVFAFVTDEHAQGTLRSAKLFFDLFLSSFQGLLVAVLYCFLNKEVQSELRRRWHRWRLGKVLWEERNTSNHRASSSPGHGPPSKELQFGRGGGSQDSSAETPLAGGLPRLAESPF

[2] = target: T2, human GLP-1 receptor (GLP-1R) (Homo sapiens, UniProt P43220); test: as above; assay type: cell-based; details: HEK293 cells expressing human GLP-1R, geometric mean, read-out: hGLP1R cAMP Rel EC50 nM (SEM, n)
T2 construct: expressed in transfected cells; host or cells: HEK293
T2 sequence (P43220 24-463): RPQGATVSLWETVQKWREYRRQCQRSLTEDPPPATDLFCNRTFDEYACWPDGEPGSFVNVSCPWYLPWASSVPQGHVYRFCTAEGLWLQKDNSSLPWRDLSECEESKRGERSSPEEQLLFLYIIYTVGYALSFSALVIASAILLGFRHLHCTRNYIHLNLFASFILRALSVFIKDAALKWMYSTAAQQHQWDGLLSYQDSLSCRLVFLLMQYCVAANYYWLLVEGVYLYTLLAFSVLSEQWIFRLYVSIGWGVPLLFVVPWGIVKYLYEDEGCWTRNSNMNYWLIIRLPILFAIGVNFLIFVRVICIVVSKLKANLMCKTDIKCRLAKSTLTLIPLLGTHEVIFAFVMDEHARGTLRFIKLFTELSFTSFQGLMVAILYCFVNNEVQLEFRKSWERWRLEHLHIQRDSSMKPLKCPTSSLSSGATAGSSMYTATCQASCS

human GLP-1R = target: T3, human GLP-1R (Homo sapiens, UniProt P43220); test: [125I]-GLP-1 binding, SPA with WGA beads, 0.1% bacitracin; details: geometric mean, read-out: hGLP1R Ki
T3 construct: expressed in transfected cells; crude membranes
T3 sequence (P43220 24-463): as above
How it was run: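 Binding buffer was 25 mM HEPES pH 7.4 with 2.5 mM CaCl2, 1 mM MgCl2, 0.1% (w/v) bacitracin, 0.003% Tween-20 and EDTA-free protease inhibitors. Four-parameter regression gave IC50, converted to Ki (geometric mean, SEM, n independent days).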

Structure (SMILES)	EC50 [1] [nM]	EC50 [2] [nM]	pKi (human GLP-1R)
CC[C@H](C)[C@H](NC(=O)[C@H](Cc1ccccc1)NC(=O)[C@@H](NC(=O)CNC(=O)[C@H](CCC(=O)O)NC(=O)C(C)(C)NC(=O)[C@@H](N)Cc1ccc(O)cc1)[C@@H](C)O)C(=O)N[C@@H](CO)C(=O)N[C@@H](CC(=O)O)C(=O)N[C@@H](Cc1ccc(O)cc1)C(=O)N[C@@H](CO)C(=O)N[C@H](C(=O)N[C@@](C)(CC(C)C)C(=O)N[C@@H](CC(C)C)C(=O)N[C@@H](CC(=O)O)C(=O)N[C@@H](CCCCN)C(=O)N[C@@H](CCCCNC(=O)COCCOCCNC(=O)COCCOCCNC(=O)CC[C@H](NC(=O)CCCCCCCCCCCCCCCCCCC(=O)O)C(=O)O)C(=O)N[C@@H](Cc1c[nH]cn1)C(=O)N[C@@H](CCC(N)=O)C(=O)NC(C)(C)C(=O)N[C@@H](CCC(=O)O)C(=O)N[C@@H](Cc1ccccc1)C(=O)N[C@H](C(=O)N[C@@H](CCC(=O)O)C(=O)N[C@@H](Cc1ccc(O)cc1)C(=O)N[C@@H](CC(C)C)C(=O)N[C@@H](CC(C)C)C(=O)N[C@@H](CCC(=O)O)C(=O)N[C@H](C(=O)NCC(=O)N1CCC[C@H]1C(=O)N[C@@H](CO)C(=O)N[C@@H](CO)C(=O)NCC(=O)N[C@@H](C)C(=O)N1CCC[C@H]1C(=O)N1CCC[C@H]1C(=O)N1CCC[C@H]1C(=O)N[C@@H](CO)C(N)=O)[C@@H](C)O)C(C)C)[C@@H](C)CC [Example 64] (H-Y[Aib]EGTFISDYSI[αMeL]LDKK([AEEA-AEEA-γGlu-C20 diacid])HQ[Aib]EFVEYLLETGPSSGAPPPS-NH2)	3070	> 5000	6.32
CC[C@H](C)[C@H](NC(=O)[C@H](Cc1ccccc1)NC(=O)[C@@H](NC(=O)CNC(=O)[C@H](CCC(=O)O)NC(=O)C(C)(C)NC(=O)[C@@H](N)Cc1ccc(O)cc1)[C@@H](C)O)C(=O)N[C@@H](CO)C(=O)N[C@@H](CC(=O)O)C(=O)N[C@@H](Cc1ccc(O)cc1)C(=O)N[C@@H](CO)C(=O)N[C@H](C(=O)N[C@@](C)(CC(C)C)C(=O)N[C@@H](CC(C)C)C(=O)N[C@@H](CC(=O)O)C(=O)N[C@@H](CCCCN)C(=O)N[C@@H](CCCCNC(=O)COCCOCCNC(=O)COCCOCCNC(=O)CC[C@H](NC(=O)CCCCCCCCCCCCCCCCCCC(=O)O)C(=O)O)C(=O)N[C@@H](Cc1c[nH]cn1)C(=O)N[C@@H](CCC(N)=O)C(=O)NC(C)(C)C(=O)N[C@@H](CCC(=O)O)C(=O)N[C@@H](Cc1ccccc1)C(=O)N[C@H](C(=O)N[C@@H](CCC(=O)O)C(=O)N[C@@H](Cc1ccc(O)cc1)C(=O)N[C@@H](CC(C)C)C(=O)N[C@@H](CC(C)C)C(=O)N[C@@H](CCC(=O)O)C(=O)N[C@@H](C)C(=O)NCC(=O)N1CCC[C@H]1C(=O)N[C@@H](CO)C(=O)N[C@@H](CO)C(=O)NCC(=O)N[C@@H](C)C(=O)N1CCC[C@H]1C(=O)N1CCC[C@H]1C(=O)N1CCC[C@H]1C(=O)N[C@@H](CO)C(N)=O)C(C)C)[C@@H](C)CC [Example 65] (H-Y[Aib]EGTFISDYSI[αMeL]LDKK([AEEA-AEEA-γGlu-C20 diacid])HQ[Aib]EFVEYLLEAGPSSGAPPPS-NH2)	850	> 5000	6.52
CC[C@H](C)[C@H](NC(=O)[C@H](Cc1ccccc1)NC(=O)[C@@H](NC(=O)CNC(=O)[C@H](CCC(=O)O)NC(=O)C(C)(C)NC(=O)[C@@H](N)Cc1ccc(O)cc1)[C@@H](C)O)C(=O)N[C@@H](CO)C(=O)N[C@@H](CC(=O)O)C(=O)N[C@@H](Cc1ccc(O)cc1)C(=O)N[C@@H](CO)C(=O)N[C@H](C(=O)N[C@@](C)(CC(C)C)C(=O)N[C@@H](CC(C)C)C(=O)N[C@@H](CC(=O)O)C(=O)N[C@@H](CCCCN)C(=O)N[C@@H](CCCCNC(=O)COCCOCCNC(=O)COCCOCCNC(=O)CC[C@H](NC(=O)CCCCCCCCCCCCCCCCCCC(=O)O)C(=O)O)C(=O)N[C@@H](Cc1c[nH]cn1)C(=O)N[C@@H](CCC(N)=O)C(=O)NC(C)(C)C(=O)N[C@@H](CC(=O)O)C(=O)N[C@@H](Cc1ccccc1)C(=O)N[C@H](C(=O)N[C@@H](CCC(=O)O)C(=O)N[C@@H](Cc1ccc(O)cc1)C(=O)N[C@@H](CC(C)C)C(=O)N[C@@H](CC(C)C)C(=O)N[C@@H](CCC(=O)O)C(=O)N[C@H](C(=O)NCC(=O)N1CCC[C@H]1C(=O)N[C@@H](CO)C(=O)N[C@@H](CO)C(=O)NCC(=O)N[C@@H](C)C(=O)N1CCC[C@H]1C(=O)N1CCC[C@H]1C(=O)N1CCC[C@H]1C(=O)N[C@@H](CO)C(N)=O)[C@@H](C)O)C(C)C)[C@@H](C)CC [Example 66] (H-Y[Aib]EGTFISDYSI[αMeL]LDKK([AEEA-AEEA-γGlu-C20 diacid])HQ[Aib]DFVEYLLETGPSSGAPPPS-NH2)	> 5000	> 5000	6.49
CC[C@H](C)[C@H](NC(=O)[C@H](Cc1ccccc1)NC(=O)[C@@H](NC(=O)CNC(=O)[C@H](CCC(=O)O)NC(=O)C(C)(C)NC(=O)[C@@H](N)Cc1ccc(O)cc1)[C@@H](C)O)C(=O)N[C@@H](CO)C(=O)N[C@@H](CC(=O)O)C(=O)N[C@@H](Cc1ccc(O)cc1)C(=O)N[C@@H](CO)C(=O)N[C@H](C(=O)N[C@@](C)(CC(C)C)C(=O)N[C@@H](CC(C)C)C(=O)N[C@@H](CC(=O)O)C(=O)N[C@@H](CCCCN)C(=O)N[C@@H](CCCCNC(=O)COCCOCCNC(=O)COCCOCCNC(=O)CC[C@H](NC(=O)CCCCCCCCCCCCCCCCCCC(=O)O)C(=O)O)C(=O)N[C@@H](Cc1c[nH]cn1)C(=O)N[C@@H](CCC(N)=O)C(=O)NC(C)(C)C(=O)N[C@@H](CC(=O)O)C(=O)N[C@@H](Cc1ccccc1)C(=O)N[C@H](C(=O)N[C@@H](CCC(=O)O)C(=O)N[C@@H](Cc1ccc(O)cc1)C(=O)N[C@@H](CC(C)C)C(=O)N[C@@H](CC(C)C)C(=O)N[C@@H](CCC(=O)O)C(=O)N[C@@H](C)C(=O)NCC(=O)N1CCC[C@H]1C(=O)N[C@@H](CO)C(=O)N[C@@H](CO)C(=O)NCC(=O)N[C@@H](C)C(=O)N1CCC[C@H]1C(=O)N1CCC[C@H]1C(=O)N1CCC[C@H]1C(=O)N[C@@H](CO)C(N)=O)C(C)C)[C@@H](C)CC [Example 68] (H-Y[Aib]EGTFISDYSI[αMeL]LDKK([AEEA-AEEA-γGlu-C20 diacid])HQ[Aib]DFVEYLLEAGPSSGAPPPS-NH2)	3030	> 5000	6.38
CC[C@H](C)[C@H](NC(=O)[C@H](Cc1ccccc1)NC(=O)[C@@H](NC(=O)CNC(=O)[C@H](CCC(=O)O)NC(=O)C(C)(C)NC(=O)[C@@H](N)Cc1ccc(O)cc1)[C@@H](C)O)C(=O)N[C@@H](CO)C(=O)N[C@@H](CC(=O)O)C(=O)N[C@@H](Cc1ccc(O)cc1)C(=O)N[C@@H](CO)C(=O)N[C@H](C(=O)N[C@@](C)(CC(C)C)C(=O)N[C@@H](CC(C)C)C(=O)N[C@@H](CC(=O)O)C(=O)N[C@@H](CCCCN)C(=O)N[C@@H](CCCCNC(=O)COCCOCCNC(=O)COCCOCCNC(=O)CC[C@H](NC(=O)CCCCCCCCCCCCCCCCCCC(=O)O)C(=O)O)C(=O)N[C@@H](Cc1c[nH]cn1)C(=O)N[C@@H](CCC(N)=O)C(=O)NC(C)(C)C(=O)N[C@@H](CC(=O)O)C(=O)N[C@@H](Cc1ccccc1)C(=O)N[C@H](C(=O)N[C@@H](CCC(=O)O)C(=O)N[C@@H](Cc1ccc(O)cc1)C(=O)N[C@@H](CC(C)C)C(=O)N[C@@H](CC(C)C)C(=O)N[C@@H](CCC(=O)O)C(=O)NCC(=O)NCC(=O)N1CCC[C@H]1C(=O)N[C@@H](CO)C(=O)N[C@@H](CO)C(=O)NCC(=O)N[C@@H](C)C(=O)N1CCC[C@H]1C(=O)N1CCC[C@H]1C(=O)N1CCC[C@H]1C(=O)N[C@@H](CO)C(N)=O)C(C)C)[C@@H](C)CC [Example 69] (H-Y[Aib]EGTFISDYSI[αMeL]LDKK([AEEA-AEEA-γGlu-C20 diacid])HQ[Aib]DFVEYLLEGGPSSGAPPPS-NH2)	803	> 5000	6.84
CC[C@H](C)[C@H](NC(=O)[C@H](Cc1ccccc1)NC(=O)[C@@H](NC(=O)CNC(=O)[C@H](CCC(=O)O)NC(=O)C(C)(C)NC(=O)[C@@H](N)Cc1ccc(O)cc1)[C@@H](C)O)C(=O)N[C@@H](CO)C(=O)N[C@@H](CC(=O)O)C(=O)N[C@@H](Cc1ccc(O)cc1)C(=O)N[C@@H](CO)C(=O)N[C@H](C(=O)N[C@@](C)(CC(C)C)C(=O)N[C@@H](CC(C)C)C(=O)N[C@@H](CC(=O)O)C(=O)N[C@@H](CCCCN)C(=O)N[C@@H](CCCCNC(=O)COCCOCCNC(=O)COCCOCCNC(=O)CC[C@H](NC(=O)CCCCCCCCCCCCCCCCCCC(=O)O)C(=O)O)C(=O)N[C@@H](Cc1c[nH]cn1)C(=O)N[C@@H](CCC(N)=O)C(=O)NC(C)(C)C(=O)N[C@@H](CC(=O)O)C(=O)N[C@@H](Cc1ccccc1)C(=O)N[C@H](C(=O)N[C@@H](CCC(=O)O)C(=O)N[C@@H](Cc1ccncc1)C(=O)N[C@@H](CC(C)C)C(=O)N[C@@H](CC(C)C)C(=O)N[C@@H](C)C(=O)N[C@H](C(=O)NCC(=O)N1CCC[C@H]1C(=O)N[C@@H](CO)C(=O)N[C@@H](CO)C(=O)NCC(=O)N[C@@H](C)C(=O)N1CCC[C@H]1C(=O)N1CCC[C@H]1C(=O)N1CCC[C@H]1C(=O)N[C@@H](CO)C(N)=O)[C@@H](C)O)C(C)C)[C@@H](C)CC [Example 70] (H-Y[Aib]EGTFISDYSI[αMeL]LDKK([AEEA-AEEA-γGlu-C20 diacid])HQ[Aib]DFVE[4Pal]LLATGPSSGAPPPS-NH2)	3560	> 5000	6.24
